From PubChem BioAssay AID2060486 (Molecular Pharmacology Branch, DTP, NCI, 2025)

Test system: IGROV1 complex spheroids (HUVEC, MSC), viability % test/control
Assay: Anticancer human tumor IGROV1 cell line growth inhibition [GQUAD];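 note: spheroids exposed to compounds for 7 days before readout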;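 for viability, T/C: 100% = DMSO vehicle control viability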
Settings: for IC50: curve of first compound; for viability, T/C: stronger effect = lower value
Method in brief: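 Multi-cell-type spheroids of tumor cells with HUVEC and mesenchymal stem cells, treated with drug combinations. Concentrations descend in half-log steps from near clinical Cmax, or from 10 microM where Cmax is unknown; viability read-out.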

[1] = second compound 0.0316 µM, first compound 0.0316 µM
[2] = second compound 0.0316 µM, first compound 0.1 µM
[3] = second compound 0.0316 µM, first compound 0.316 µM
[4] = second compound 0.0316 µM, first compound 1 µM
[5] = second compound 0.0316 µM, first compound 3.16 µM
[6] = second compound 0.0316 µM, first compound 10 µM
[7] = second compound 0.1 µM, first compound 0.0316 µM
[8] = second compound 0.1 µM, first compound 0.1 µM
[9] = second compound 0.1 µM, first compound 0.316 µM
[10] = second compound 0.1 µM, first compound 1 µM
[11] = second compound 0.1 µM, first compound 3.16 µM
[12] = second compound 0.1 µM, first compound 10 µM
[13] = second compound 0.316 µM, first compound 0.0316 µM
[14] = second compound 0.316 µM, first compound 0.1 µM
[15] = second compound 0.316 µM, first compound 0.316 µM
[16] = second compound 0.316 µM, first compound 1 µM
[17] = second compound 0.316 µM, first compound 3.16 µM
[18] = second compound 0.316 µM, first compound 10 µM
[19] = second compound 1 µM, first compound 0.0316 µM
[20] = second compound 1 µM, first compound 0.1 µM
[21] = second compound 1 µM, first compound 0.316 µM
[22] = second compound 1 µM, first compound 1 µM
[23] = second compound 1 µM, first compound 3.16 µM
[24] = second compound 1 µM, first compound 10 µM
[25] = second compound 3.16 µM, first compound 0.0316 µM
[26] = second compound 3.16 µM, first compound 0.1 µM
[27] = second compound 3.16 µM, first compound 0.316 µM
[28] = second compound 3.16 µM, first compound 1 µM
[29] = second compound 3.16 µM, first compound 3.16 µM
[30] = second compound 3.16 µM, first compound 10 µM
[31] = second compound 10 µM, first compound 0.0316 µM
[32] = second compound 10 µM, first compound 0.1 µM
[33] = second compound 10 µM, first compound 0.316 µM
[34] = second compound 10 µM, first compound 1 µM
[35] = second compound 10 µM, first compound 3.16 µM
[36] = second compound 10 µM, first compound 10 µM

C=CCn1c(=O)c2cnc(Nc3ccc(N4CCN(C)CC4)cc3)nc2n1-c1cccc(C(C)(C)O)n1 + CN(C)c1ccc(Nc2c3ccc(NC(=O)CCN4CCCC4)cc3nc3cc(NC(=O)CCN4CCCC4)ccc23)cc1
IC50 (second compound 0.0316 µM): 153 nM | IC50 (second compound 0.1 µM): 145 nM | IC50 (second compound 0.316 µM): 138 nM | IC50 (second compound 1 µM): 136 nM | IC50 (second compound 3.16 µM): 112 nM | IC50 (second compound 10 µM): < 31.6 nM | viability, T/C [1]: 92.4% | viability, T/C [2]: 72.3% | viability, T/C [3]: 12.3% | viability, T/C [4]: 3.27% | viability, T/C [5]: 3.29% | viability, T/C [6]: 2.49% | viability, T/C [7]: 90.8% | viability, T/C [8]: 68.1% | viability, T/C [9]: 12.1% | viability, T/C [10]: 2.73% | viability, T/C [11]: 2.54% | viability, T/C [12]: 2.34% | viability, T/C [13]: 76.4% | viability, T/C [14]: 65.5% | viability, T/C [15]: 10.3% | viability, T/C [16]: 3.01% | viability, T/C [17]: 2.63% | viability, T/C [18]: 1.87% | viability, T/C [19]: 61.6% | viability, T/C [20]: 69.2% | viability, T/C [21]: 8.29% | viability, T/C [22]: 2.65% | viability, T/C [23]: 2.66% | viability, T/C [24]: 2.32% | viability, T/C [25]: 67.7% | viability, T/C [26]: 54.5% | viability, T/C [27]: 7.41% | viability, T/C [28]: 3.03% | viability, T/C [29]: 2.47% | viability, T/C [30]: 1.97% | viability, T/C [31]: 37.6% | viability, T/C [32]: 27.4% | viability, T/C [33]: 5.31% | viability, T/C [34]: 2.61% | viability, T/C [35]: 1.87% | viability, T/C [36]: 1.28%

COc1ncnc(C2CC2)c1-c1ncc2cnn(Cc3ccc(-c4nc(C(F)(F)F)cn4C(C)C)cc3)c2n1 + CN(C)c1ccc(Nc2c3ccc(NC(=O)CCN4CCCC4)cc3nc3cc(NC(=O)CCN4CCCC4)ccc23)cc1
IC50 (second compound 0.0316 µM): > 10000 nM | IC50 (second compound 0.1 µM): > 10000 nM | IC50 (second compound 0.316 µM): > 10000 nM | IC50 (second compound 1 µM): > 10000 nM | IC50 (second compound 3.16 µM): > 10000 nM | IC50 (second compound 10 µM): 237 nM | viability, T/C [1]: 93.5% | viability, T/C [2]: 99% | viability, T/C [3]: 95.3% | viability, T/C [4]: 89.2% | viability, T/C [5]: 104% | viability, T/C [6]: 83.2% | viability, T/C [7]: 86.9% | viability, T/C [8]: 93% | viability, T/C [9]: 94.1% | viability, T/C [10]: 78.2% | viability, T/C [11]: 100% | viability, T/C [12]: 82.2% | viability, T/C [13]: 77.3% | viability, T/C [14]: 88.4% | viability, T/C [15]: 103% | viability, T/C [16]: 79.2% | viability, T/C [17]: 93.2% | viability, T/C [18]: 82.2% | viability, T/C [19]: 66.5% | viability, T/C [20]: 89.1% | viability, T/C [21]: 98.7% | viability, T/C [22]: 74% | viability, T/C [23]: 83.4% | viability, T/C [24]: 80.9% | viability, T/C [25]: 52.1% | viability, T/C [26]: 69.2% | viability, T/C [27]: 75.3% | viability, T/C [28]: 88.8% | viability, T/C [29]: 75% | viability, T/C [30]: 62.5% | viability, T/C [31]: 50% | viability, T/C [32]: 53% | viability, T/C [33]: 51.5% | viability, T/C [34]: 41.6% | viability, T/C [35]: 37.7% | viability, T/C [36]: 9.91%

C=CC(=O)N1CCN(c2nc(=O)n(-c3c(C)ccnc3C(C)C)c3nc(-c4c(O)cccc4F)c(F)cc23)C(C)C1 (stereo unspecified) + Cc1[nH]c2ccc(F)cc2c1-c1nc2c3cccnc3c3ncccc3c2[nH]1
IC50 (second compound 0.0316 µM): > 10000 nM | IC50 (second compound 0.1 µM): > 10000 nM | IC50 (second compound 0.316 µM): > 10000 nM | IC50 (second compound 1 µM): < 31.6 nM | IC50 (second compound 3.16 µM): < 31.6 nM | IC50 (second compound 10 µM): < 31.6 nM | viability, T/C [1]: 104% | viability, T/C [2]: 70.5% | viability, T/C [3]: 103% | viability, T/C [4]: 45.8% | viability, T/C [5]: 94.8% | viability, T/C [6]: 87.5% | viability, T/C [7]: 90.2% | viability, T/C [8]: 89.7% | viability, T/C [9]: 80.6% | viability, T/C [10]: 75.1% | viability, T/C [11]: 92.8% | viability, T/C [12]: 99.2% | viability, T/C [13]: 70.5% | viability, T/C [14]: 93.9% | viability, T/C [15]: 76.2% | viability, T/C [16]: 78.9% | viability, T/C [17]: 80% | viability, T/C [18]: 56.8% | viability, T/C [19]: 3.43% | viability, T/C [20]: 3.79% | viability, T/C [21]: 6.26% | viability, T/C [22]: 4.23% | viability, T/C [23]: 4.27% | viability, T/C [24]: 2.01% | viability, T/C [25]: 3.63% | viability, T/C [26]: 4.79% | viability, T/C [27]: 4.74% | viability, T/C [28]: 4.03% | viability, T/C [29]: 4.45% | viability, T/C [30]: 2.13% | viability, T/C [31]: 4.57% | viability, T/C [32]: 4.39% | viability, T/C [33]: 4.91% | viability, T/C [34]: 5.12% | viability, T/C [35]: 4.17% | viability, T/C [36]: 2.46%
